Values joined by “and” are separate entries in the source; they are usually repeats but may differ in a detail not shown here. Equal entries are not always repeated. Toxic doses and inconclusive results are not listed. No stated cut-off is given here; in the data, active means T/C of 150% or more; inactive means T/C below 125%.
System: L1210 leukemia ip in BDF1 mice, survival T/C
Assay: NCI In Vivo Anticancer Drug Screen. Data for tumor model L1210 Leukemia (intraperitoneal) in B6D2F1 (BDF1) mice
Details: endpoint: mean survival time, higher = longer survival
Outline: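 Transplantable tumor model; survival measured in treated vs vehicle control mice. Value = treated/control.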

[1] = dose: 100.0 mg/kg/injection, schedule: Q01DX001 (ip), vehicle: carboxymethylcellulose (CMC)
[2] = dose: 400.0 mg/kg/injection, schedule: Q01DX001 (ip), vehicle: carboxymethylcellulose (CMC)
[3] = dose: 100.0 mg/kg/injection, schedule: Q01DX009 (ip), vehicle: saline
[4] = dose: 100.0 mg/kg/injection, schedule: Q04DX003 (ip), vehicle: saline
[5] = dose: 100.0 mg/kg/injection, schedule: Q04DX002 (ip), vehicle: saline with Tween-80
[6] = dose: 200.0 mg/kg/injection, schedule: Q04DX003 (ip), vehicle: saline
[7] = dose: 400.0 mg/kg/injection, schedule: Q04DX003 (ip), vehicle: saline
[8] = dose: 100.0 mg/kg/injection, schedule: Q04DX003 (ip), vehicle: Klucel (hydroxypropylcellulose) (HPC)
[9] = dose: 100.0 mg/kg/injection, schedule: Q01DX001 (ip), vehicle: saline
[10] = dose: 200.0 mg/kg/injection, schedule: Q01DX001 (ip), vehicle: saline
[11] = dose: 400.0 mg/kg/injection, schedule: Q01DX001 (ip), vehicle: saline
[12] = dose: 100.0 mg/kg/injection, schedule: Q01DX009 (ip), vehicle: Klucel (hydroxypropylcellulose) (HPC)
[13] = dose: 200.0 mg/kg/injection, schedule: Q01DX009 (ip), vehicle: Klucel (hydroxypropylcellulose) (HPC)
[14] = dose: 200.0 mg/kg/injection, schedule: Q04DX003 (ip), vehicle: Klucel (hydroxypropylcellulose) (HPC)
[15] = dose: 400.0 mg/kg/injection, schedule: Q01DX009 (ip), vehicle: Klucel (hydroxypropylcellulose) (HPC)
[16] = dose: 400.0 mg/kg/injection, schedule: Q04DX003 (ip), vehicle: Klucel (hydroxypropylcellulose) (HPC)
[17] = dose: 200.0 mg/kg/injection, schedule: Q01DX009 (ip), vehicle: saline
[18] = dose: 10.0 mg/kg/injection, schedule: Q01DX001 (ip), vehicle: saline
[19] = dose: 100.0 mg/kg/injection, schedule: Q04DX002 (ip), vehicle: Klucel (hydroxypropylcellulose) (HPC)
[20] = dose: 200.0 mg/kg/injection, schedule: Q04DX002 (ip), vehicle: Klucel (hydroxypropylcellulose) (HPC)
[21] = dose: 400.0 mg/kg/injection, schedule: Q04DX002 (ip), vehicle: Klucel (hydroxypropylcellulose) (HPC)

Measured: T/C

O=C1OC(c2cccc(Cl)c2)=N/C1=C\C=C/c1ccccc1
inactive: [1] 95 % of control | dose: 100.0 mg/kg/injection, schedule: Q01DX009 (ip), vehicle: carboxymethylcellulose (CMC) 89 % of control and 92 % of control | dose: 200.0 mg/kg/injection, schedule: Q01DX009 (ip), vehicle: carboxymethylcellulose (CMC) 87 % of control and 92 % of control | [2] 93 % of control

CCN1CC(CCN2CCOCC2)C(c2ccccc2)(c2ccccc2)C1=O (stereo unspecified)
inactive: dose: 6.25 mg/kg/injection, schedule: Q01DX009 (ip), vehicle: saline 111 % of control | dose: 12.5 mg/kg/injection, schedule: Q01DX009 (ip), vehicle: saline 108 % of control | dose: 25.0 mg/kg/injection, schedule: Q01DX009 (ip), vehicle: saline 101 % of control | dose: 25.0 mg/kg/injection, schedule: Q04DX003 (ip), vehicle: saline 87 % of control | dose: 50.0 mg/kg/injection, schedule: Q01DX009 (ip), vehicle: saline 111 % of control | dose: 50.0 mg/kg/injection, schedule: Q04DX003 (ip), vehicle: saline 95 % of control | [3] 101 % of control | [4] 92 % of control

O=N[O-].O=N[O-].[Co].[NH2-].[NH2-].[NH2-].[NH2-]
inactive: [5] 112 % of control

O=C(CSc1cc(-c2ccc(Cl)cc2)s[s+]1)c1ccc(Cl)cc1
inactive: [4] 102 % of control | [6] 98 % of control | [7] 98 % of control

COc1cc2c(cc1OC)NCc1cccn1C2
inactive: dose: 25.0 mg/kg/injection, schedule: Q04DX002 (ip), vehicle: saline with Tween-80 101 % of control | dose: 50.0 mg/kg/injection, schedule: Q04DX002 (ip), vehicle: saline with Tween-80 97 % of control | [5] 105 % of control

N#CCCCOc1ccc(Cl)cc1
inactive: dose: 25.0 mg/kg/injection, schedule: Q04DX003 (ip), vehicle: Klucel (hydroxypropylcellulose) (HPC) 104 % of control | dose: 50.0 mg/kg/injection, schedule: Q04DX003 (ip), vehicle: Klucel (hydroxypropylcellulose) (HPC) 104 % of control | [8] 98 % of control

CCc1ccc(NC(=S)NC(=O)c2ccccc2OC)cc1
inactive: dose: 100.0 mg/kg/injection, schedule: Q01DX009 (ip), vehicle: other 98 % of control | dose: 200.0 mg/kg/injection, schedule: Q01DX009 (ip), vehicle: other 103 % of control | dose: 400.0 mg/kg/injection, schedule: Q01DX009 (ip), vehicle: other 93 % of control

CCCC/C(=N\OC(=O)N(C)C)c1ccccc1
inactive: [9] 103 % of control | [10] 98 % of control | [11] 98 % of control

O=C(O)CCCN1C/C(=C\c2ccccc2)C(=O)C1=O
inactive: [4] 104 % of control | [6] 101 % of control | [7] 98 % of control

O=C(O)C1C2CCC3C(C(=O)O)C3C21 (stereo unspecified)
inactive: [12] 100 % of control | [8] 97 % of control | [13] 97 % of control | [14] 101 % of control | [15] 92 % of control | [16] 98 % of control

Cn1c(O)c(C=N)c(=O)[nH]c1=O
inactive: [3] 86 % of control | [4] 90 % of control | [17] 88 % of control | [6] 92 % of control | dose: 400.0 mg/kg/injection, schedule: Q01DX009 (ip), vehicle: saline 86 % of control | [7] 90 % of control

CNP(Br)(c1ccccc1)(c1ccccc1)c1ccccc1
inactive: [18] 101 % of control

COc1ccc(NC(=O)c2cccc(C(=O)Nc3ccc(OC)cc3Cl)c2)c(Cl)c1
inactive: [19] 97 % of control | [20] 97 % of control | [21] 90 % of control

C/C=C1/C(=O)O[C@]23C=C[C@@H]4C(C(=O)OC)=CO[C@H](O[C@@H]12)[C@@H]43
inactive: [9] 104 % of control | [10] 103 % of control | [11] 98 % of control

CCCCCCCCCCCCCCCCC1=NCCN1
inactive: dose: 5.0 mg/kg/injection, schedule: Q01DX009 (ip), vehicle: saline 91 % of control | [18] 94 % of control | dose: 10.0 mg/kg/injection, schedule: Q01DX009 (ip), vehicle: saline 91 % of control | dose: 10.0 mg/kg/injection, schedule: Q04DX003 (ip), vehicle: saline 94 % of control | dose: 20.0 mg/kg/injection, schedule: Q01DX001 (ip), vehicle: saline 97 % of control | dose: 20.0 mg/kg/injection, schedule: Q01DX009 (ip), vehicle: saline 88 % of control | dose: 20.0 mg/kg/injection, schedule: Q04DX003 (ip), vehicle: saline 93 % of control and 90 % of control | dose: 40.0 mg/kg/injection, schedule: Q01DX001 (ip), vehicle: saline 101 % of control | dose: 40.0 mg/kg/injection, schedule: Q04DX003 (ip), vehicle: saline 95 % of control and 88 % of control

COc1ccc(CN2CCCN(Cc3ccc(OC)cc3OC)C2c2ccc(N(CCCl)CCCl)cc2Cl)c(OC)c1
inactive: dose: 50.0 mg/kg/injection, schedule: Q01DX001 (ip), vehicle: carboxymethylcellulose (CMC) 101 % of control | [1] 95 % of control | dose: 200.0 mg/kg/injection, schedule: Q01DX001 (ip), vehicle: carboxymethylcellulose (CMC) 98 % of control | [2] 101 % of control

CC12CCC(O)CC1CCC1C3CCCC(=O)C3CCC12 (stereo unspecified)
inactive: dose: 50.0 mg/kg/injection, schedule: Q01DX009 (sc), vehicle: steriod suspending solution 103 % of control | dose: 100.0 mg/kg/injection, schedule: Q01DX009 (sc), vehicle: steriod suspending solution 97 % of control | dose: 200.0 mg/kg/injection, schedule: Q01DX009 (sc), vehicle: steriod suspending solution 94 % of control

CCC(=O)Nc1cc(Cl)ccc1OC
inactive: [12] 94 % of control | [8] 98 % of control | [13] 100 % of control | [14] 93 % of control | [15] 93 % of control | [16] 106 % of control

CNC(=S)SC
inactive: dose: 50.0 mg/kg/injection, schedule: Q01DX001 (ip), vehicle: saline 90 % of control | [9] 98 % of control | [10] 96 % of control

O=C(NC1CCCCC1c1ccccc1)c1ccccc1 (stereo unspecified)
inactive: dose: 75.0 mg/kg/injection, schedule: Q01DX001 (ip), vehicle: carboxymethylcellulose (CMC) 97 % of control and 95 % of control | dose: 150.0 mg/kg/injection, schedule: Q01DX001 (ip), vehicle: carboxymethylcellulose (CMC) 97 % of control and 91 % of control | dose: 300.0 mg/kg/injection, schedule: Q01DX001 (ip), vehicle: carboxymethylcellulose (CMC) 94 % of control and 89 % of control

CC12C=CC(CC1)C2(C)C (stereo unspecified)
inactive: [3] 95 % of control | [17] 92 % of control

O=C(O)c1cc(S(=O)(=O)O)cc(Br)c1O
inactive: [19] 95 % of control | [20] 103 % of control | [21] 89 % of control

COc1c(Br)cc(C(=O)C(C)C)c(O)c1C
inactive: dose: 75.0 mg/kg/injection, schedule: Q04DX003 (ip), vehicle: Klucel (hydroxypropylcellulose) (HPC) 95 % of control | dose: 150.0 mg/kg/injection, schedule: Q04DX003 (ip), vehicle: Klucel (hydroxypropylcellulose) (HPC) 103 % of control | dose: 300.0 mg/kg/injection, schedule: Q04DX003 (ip), vehicle: Klucel (hydroxypropylcellulose) (HPC) 95 % of control

Source: PubChem BioAssay AID248 (DTP/NCI, 2004)
